# According to patent publication US5061708A, “Therapeutic guanine esters” (priority 1987, dated 1991):
# Structures can show the parent of a compound that is named as a salt.
# Assays:
# [1] = tested on: Herpes Simplex Virus (HSV 1); assay: HSV 1 plaque reduction assay in monolayers of Vero cells; type: cell-based; settings: HSV 1, Vero cells, 50% inhibitory concentration
# Protocol: Herpes Simplex Virus (HSV 1) was assayed in monolayers of Vero cells in multiwell trays. Activity of compounds was determined in the plaque reduction assay, in which a cell monolayer was infected with a suspension of HSV 1, and then overlaid with nutrient agarose in the form of a gel to ensure that there was no spread of virus throughout the culture. A range of concentrations of compound of known molarity was incorporated in the nutrient agarose overlay. Plaque numbers at each concentration were expressed as percentages of the control and a dose-response curve was drawn. From this curve the 50% inhibitory concentration (IC50) was estimated.
# [2] = in words; cited from earlier work
# herpes viruses = settings: particularly against herpes viruses, in words; cited from earlier work
Compound,IC50 [1],absorption from the gastrointestinal tract after oral administration [2],antiviral activity (herpes viruses)
"CC[C@H](C)[C@H](N)C(=O)OCCOCn1cnc2c(=O)[nH]c(N)nc21 [Example 1, 2-(2-Amino-1,6-dihydro-6-oxo-9H(purin-9-yl)methoxy)ethyl L-isoleucinate hydrochloride]",3800 nM,,
"Nc1nc2c(ncn2COCCO)c(=O)[nH]1 [Acyclovir, 9-(2-Hydroxyethoxymethyl)guanine]",80 to 100 nM,only poorly absorbed,potent antiviral activity
